Data from US20250114347A1, “TOPICAL NALTREXONE AS A TREATMENT FOR DRY EYE” (The Penn State Research Foundation, priority 2022, published 2025).

Key:
normal rat = test: Schirmer test (tear production) in a normal rat, topical drops; format: in vivo; settings: 3% NTX solution, topical drop
Description: (§1) Four solutions were prepared with 0%, 0.5%, 1.5%, and 3% naltrexone (NTX). Previous formulations contained 0.003% NTX.
(§2) Experimental paradigm: 1-4 rats were tested with each dose (mixture of male and females). Left eyes only were treated twice daily with one drop. • Schirmer test for baseline (to determine tear production and establish dry eye) • Add drop at 0800 and again at 1700 hr (4:40-6:00 pm) • Take Schirmer test 24 hr later • Add drop at 0800 and again at 1700 hr (4th drop) • Take Schirmer test 48 hr after first drop

diabetic rats = test: Schirmer test (tear production) in hyperglycemic rats with dry eye, topical drops twice daily; format: in vivo, Sprague-Dawley rats
Description: as §1
Adult male and female Sprague-Dawley rats were rendered hyperglycemic for 6-8 weeks, with blood glucose levels >600 mg/dL. Age at time of testing was 15-18 weeks of age.
as §2

## O=C1CC[C@@]2(O)[C@H]3Cc4ccc(O)c5c4[C@@]2(CCN3CC2CC2)[C@H]1O5 [NTX, 17-(cyclopropylmethyl)-4,5α-epoxy-3,14-dihydroxymorphinan-6-one]
Normal rat
  effect on dry eye in a normal rat: caused dry eye
Diabetic rats; 0.5% NTX solution, one drop twice daily, Schirmer test at 24 and 48 hr
  reversal of dry eye: reversed dry eye
Diabetic rats; 1.5% NTX solution compared with 0.5% and 3%
  relative effectiveness among the tested concentrations: most effective
Diabetic rats; 1.5% NTX solution, one drop twice daily, Schirmer test at 24 and 48 hr
  reversal of dry eye: reversed dry eye
Diabetic rats; 3% NTX solution left at RT for 3 weeks (some decomposition of the NTX)
  reversal of dry eye: effective at reversing dry eye
Diabetic rats; 3% NTX solution, both male and female, one drop twice daily, Schirmer test at 24 and 48 hr
  reversal of dry eye: did not reverse dry eye
